Measurements reported in the NIST ThermoML archive (doi:10.1021/je201211f).
± gives the expanded uncertainty stated by the source.

Experiments:
[1] = refractive index (Na D-line) (dimensionless); xn = mol fraction of the nth substance listed; conditions: 298.15 K, 101 kPa, Liquid
[2] = xn = mol fraction of the nth substance listed; conditions: 101 kPa, Liquid; for mass density: Vibrating tube method; for viscosity: Capillary tube (Ostwald / Ubbelohde) method
[3] = 298.15 K, 101.33 kPa, Liquid; for viscosity: Capillary tube (Ostwald / Ubbelohde) method; for mass density: Vibrating tube method
[4] = refractive index (Na D-line) (dimensionless); conditions: 298.15 K; 101.33 kPa; Liquid; Standard Abbe refractometry

ClC=C(Cl)Cl [trichloroethene] + Cc1ccc(C)cc1
Conditions	mass density [kg/m3]	refractive index	viscosity [mPa·s]
[1], Standard Abbe refractometry, x1 = 0.0897	–	1.4921 ± 0.0005	–
[1], Standard Abbe refractometry, x1 = 0.154	–	1.4911 ± 0.0005	–
[1], Standard Abbe refractometry, x1 = 0.2402	–	1.4897 ± 0.0005	–
[1], Standard Abbe refractometry, x1 = 0.318	–	1.4885 ± 0.0005	–
[1], Standard Abbe refractometry, x1 = 0.399	–	1.4873 ± 0.0005	–
[1], Standard Abbe refractometry, x1 = 0.4801	–	1.486 ± 0.0005	–
[1], Standard Abbe refractometry, x1 = 0.5624	–	1.4844 ± 0.0005	–
[1], Standard Abbe refractometry, x1 = 0.64	–	1.4829 ± 0.0005	–
[1], Standard Abbe refractometry, x1 = 0.721	–	1.4811 ± 0.0005	–
[1], Standard Abbe refractometry, x1 = 0.7988	–	1.4794 ± 0.0005	–
[1], Standard Abbe refractometry, x1 = 0.8834	–	1.4775 ± 0.0005	–
[1], Standard Abbe refractometry, x1 = 0.961	–	1.4753 ± 0.0005	–
[2], 293.15 K, x1 = 0.0843	899.17 ± 0.3	–	–
[2], 293.15 K, x1 = 0.1806	944.97 ± 0.29	–	–
[2], 293.15 K, x1 = 0.2528	980.96 ± 0.28	–	–
[2], 293.15 K, x1 = 0.3239	1017.91 ± 0.29	–	–
[2], 293.15 K, x1 = 0.403	1060.83 ± 0.3	–	–
[2], 293.15 K, x1 = 0.49	1110.44 ± 0.31	–	–
[2], 293.15 K, x1 = 0.5689	1157.79 ± 0.32	–	–
[2], 293.15 K, x1 = 0.6381	1201.31 ± 0.33	–	–
[2], 293.15 K, x1 = 0.7202	1255.5 ± 0.34	–	–
[2], 293.15 K, x1 = 0.7975	1309.15 ± 0.36	–	–
[2], 293.15 K, x1 = 0.8925	1379.16 ± 0.37	–	–
[2], 293.15 K, x1 = 0.9582	1430.28 ± 0.39	–	–
[2], 298.15 K, x1 = 0.0843	894.6 ± 0.3	–	–
[2], 298.15 K, x1 = 0.0897	–	–	0.6075 ± 0.0077
[2], 298.15 K, x1 = 0.154	–	–	0.606 ± 0.0077
[2], 298.15 K, x1 = 0.1806	940.12 ± 0.29	–	–
[2], 298.15 K, x1 = 0.2402	–	–	0.6043 ± 0.0077
[2], 298.15 K, x1 = 0.2528	975.88 ± 0.28	–	–
[2], 298.15 K, x1 = 0.318	–	–	0.6026 ± 0.0076
[2], 298.15 K, x1 = 0.3239	1012.59 ± 0.28	–	–
[2], 298.15 K, x1 = 0.399	–	–	0.5999 ± 0.0076
[2], 298.15 K, x1 = 0.403	1055.25 ± 0.29	–	–
[2], 298.15 K, x1 = 0.4801	–	–	0.5968 ± 0.0075
[2], 298.15 K, x1 = 0.49	1104.53 ± 0.3	–	–
[2], 298.15 K, x1 = 0.5624	–	–	0.594 ± 0.0075
[2], 298.15 K, x1 = 0.5689	1151.57 ± 0.32	–	–
[2], 298.15 K, x1 = 0.6381	1194.8 ± 0.33	–	–
[2], 298.15 K, x1 = 0.64	–	–	0.5915 ± 0.0074
[2], 298.15 K, x1 = 0.718	–	–	0.5888 ± 0.0074
[2], 298.15 K, x1 = 0.7202	1248.62 ± 0.34	–	–
[2], 298.15 K, x1 = 0.7975	1301.88 ± 0.35	–	–
[2], 298.15 K, x1 = 0.8	–	–	0.5861 ± 0.0073
[2], 298.15 K, x1 = 0.8834	–	–	0.5834 ± 0.0073
[2], 298.15 K, x1 = 0.8925	1371.4 ± 0.37	–	–
[2], 298.15 K, x1 = 0.9582	1422.14 ± 0.38	–	–
[2], 298.15 K, x1 = 0.9632	–	–	0.5808 ± 0.0073
[2], 303.15 K, x1 = 0.0843	890.02 ± 0.3	–	–
[2], 303.15 K, x1 = 0.1806	935.27 ± 0.29	–	–
[2], 303.15 K, x1 = 0.2528	970.8 ± 0.28	–	–
[2], 303.15 K, x1 = 0.3239	1007.28 ± 0.28	–	–
[2], 303.15 K, x1 = 0.403	1049.65 ± 0.29	–	–
[2], 303.15 K, x1 = 0.49	1098.61 ± 0.3	–	–
[2], 303.15 K, x1 = 0.5689	1145.35 ± 0.31	–	–
[2], 303.15 K, x1 = 0.6381	1188.25 ± 0.32	–	–
[2], 303.15 K, x1 = 0.7202	1241.69 ± 0.34	–	–
[2], 303.15 K, x1 = 0.7975	1294.56 ± 0.35	–	–
[2], 303.15 K, x1 = 0.8925	1363.59 ± 0.37	–	–
[2], 303.15 K, x1 = 0.9582	1413.95 ± 0.38	–	–

Cc1ccc(C)cc1 [1,4-dimethylbenzene] + CC(=O)O
[1]
Conditions	refractive index
x2 = 0.0863	1.4874 ± 0.0007
x2 = 0.173	1.4805 ± 0.0007
x2 = 0.2386	1.4748 ± 0.0007
x2 = 0.3096	1.4682 ± 0.0007
x2 = 0.3987	1.4598 ± 0.0007
x2 = 0.4897	1.4498 ± 0.0007
x2 = 0.5621	1.4414 ± 0.0007
x2 = 0.6323	1.4325 ± 0.0007
x2 = 0.7212	1.4202 ± 0.0007
x2 = 0.7965	1.4084 ± 0.0007
x2 = 0.8784	1.3939 ± 0.0007
x2 = 0.955	1.3791 ± 0.0007

[2]
Conditions	mass density, 293.15 K [kg/m3]	mass density, 298.15 K [kg/m3]	mass density, 303.15 K [kg/m3]	viscosity, 298.15 K [mPa·s]
x2 = 0.0415	864.09 ± 0.33	859.71 ± 0.34	855.31 ± 0.34	–
x2 = 0.0863	–	–	–	0.6099 ± 0.0077
x2 = 0.1166	870.08 ± 0.33	865.62 ± 0.33	861.15 ± 0.33	–
x2 = 0.157	873.55 ± 0.32	869.05 ± 0.32	864.53 ± 0.32	–
x2 = 0.1651	874.28 ± 0.32	869.76 ± 0.32	865.24 ± 0.32	–
x2 = 0.173	–	–	–	0.6095 ± 0.0077
x2 = 0.2386	–	–	–	0.6117 ± 0.0076
x2 = 0.2466	882 ± 0.32	877.4 ± 0.32	872.79 ± 0.32	–
x2 = 0.2659	884.01 ± 0.32	879.38 ± 0.32	874.76 ± 0.31	–
x2 = 0.3096	–	–	–	0.6159 ± 0.0076
x2 = 0.3246	890.49 ± 0.32	885.78 ± 0.31	881.08 ± 0.31	–
x2 = 0.3987	–	–	–	0.625 ± 0.0075
x2 = 0.4234	902.44 ± 0.31	897.64 ± 0.31	892.81 ± 0.3	–
x2 = 0.4717	909.04 ± 0.31	904.17 ± 0.31	899.29 ± 0.3	–
x2 = 0.4897	–	–	–	0.6398 ± 0.0075
x2 = 0.5505	921.33 ± 0.32	916.35 ± 0.3	911.38 ± 0.29	–
x2 = 0.5621	–	–	–	0.6575 ± 0.0076
x2 = 0.6323	–	–	–	0.68 ± 0.0076
x2 = 0.6435	938.19 ± 0.33	933.07 ± 0.3	927.95 ± 0.27	–
x2 = 0.7212	–	–	–	0.7243 ± 0.0077
x2 = 0.7299	957.01 ± 0.34	951.78 ± 0.3	946.53 ± 0.27	–
x2 = 0.7965	–	–	–	0.7753 ± 0.0079
x2 = 0.8099	977.97 ± 0.35	972.61 ± 0.3	967.24 ± 0.27	–
x2 = 0.8784	–	–	–	0.8675 ± 0.0082
x2 = 0.8851	1001.76 ± 0.36	996.29 ± 0.31	990.81 ± 0.26	–
x2 = 0.955	–	–	–	1.003 ± 0.0088
x2 = 0.9601	1030.99 ± 0.31	1025.4 ± 0.31	1019.76 ± 0.31	–

CC(=O)O [acetic acid]
Conditions	mass density [kg/m3]	refractive index	viscosity [mPa·s]
[3]	1043.58 ± 0.08	–	1.127 ± 0.009
[4]	–	1.3698 ± 0.0008	–

ClC=C(Cl)Cl [trichloroethene] + Cc1cccc(C)c1
[1]
Conditions	refractive index
x1 = 0.085	1.4932 ± 0.0007
x1 = 0.1622	1.4922 ± 0.0007
x1 = 0.2415	1.4908 ± 0.0007
x1 = 0.3204	1.4894 ± 0.0007
x1 = 0.3935	1.488 ± 0.0007
x1 = 0.496	1.4859 ± 0.0007
x1 = 0.5613	1.4845 ± 0.0007
x1 = 0.6429	1.4825 ± 0.0007
x1 = 0.7226	1.4807 ± 0.0007
x1 = 0.8061	1.4789 ± 0.0007
x1 = 0.8832	1.4773 ± 0.0007
x1 = 0.9596	1.4756 ± 0.0007

[2]
Conditions	mass density, 293.15 K [kg/m3]	mass density, 298.15 K [kg/m3]	mass density, 303.15 K [kg/m3]	viscosity, 298.15 K [mPa·s]
x1 = 0.0494	886.2 ± 0.35	881.77 ± 0.35	877.34 ± 0.35	–
x1 = 0.0768	–	–	–	0.5895 ± 0.0077
x1 = 0.0796	899.93 ± 0.35	895.43 ± 0.35	890.91 ± 0.34	–
x1 = 0.1465	–	–	–	0.5893 ± 0.0076
x1 = 0.1531	934.34 ± 0.36	929.62 ± 0.35	924.88 ± 0.34	–
x1 = 0.23	971.87 ± 0.36	966.92 ± 0.34	961.95 ± 0.33	–
x1 = 0.2415	–	–	–	0.5895 ± 0.0076
x1 = 0.3097	1012.52 ± 0.37	1007.32 ± 0.35	1002.09 ± 0.33	–
x1 = 0.3204	–	–	–	0.5897 ± 0.0075
x1 = 0.3935	–	–	–	0.5893 ± 0.0075
x1 = 0.4065	1064.66 ± 0.39	1059.1 ± 0.36	1053.53 ± 0.34	–
x1 = 0.4841	1108.6 ± 0.4	1102.78 ± 0.38	1096.93 ± 0.36	–
x1 = 0.496	–	–	–	0.5883 ± 0.0075
x1 = 0.5561	1151.33 ± 0.42	1145.2 ± 0.4	1139.05 ± 0.37	–
x1 = 0.5613	–	–	–	0.5875 ± 0.0074
x1 = 0.6423	–	–	–	0.5863 ± 0.0074
x1 = 0.6453	1206.86 ± 0.44	1200.35 ± 0.41	1193.84 ± 0.39	–
x1 = 0.709	1248.6 ± 0.45	1241.79 ± 0.43	1234.95 ± 0.41	–
x1 = 0.7204	–	–	–	0.5851 ± 0.0074
x1 = 0.7639	–	–	–	0.5844 ± 0.0073
x1 = 0.7989	1310.61 ± 0.49	1303.35 ± 0.45	1296.06 ± 0.42	–
x1 = 0.8774	–	–	–	0.5823 ± 0.0073
x1 = 0.8937	1380.16 ± 0.52	1372.41 ± 0.48	1364.61 ± 0.44	–
x1 = 0.9596	–	–	–	0.5808 ± 0.0073
x1 = 0.974	1442.88 ± 0.5	1434.66 ± 0.5	1426.38 ± 0.5	–

Cc1ccc(C)cc1 [1,4-dimethylbenzene]
Conditions	mass density [kg/m3]	refractive index	viscosity [mPa·s]
[3]	856.68 ± 0.24	–	0.609 ± 0.008
[4]	–	1.4929 ± 0.0008	–

Cc1cccc(C)c1 [1,3-dimethylbenzene]
Conditions	mass density [kg/m3]	refractive index	viscosity [mPa·s]
[3]	859.88 ± 0.24	–	0.589 ± 0.008
[4]	–	1.4944 ± 0.0008	–
